From US7250268B2, “Assay for measuring IκB kinase activity and identifying IκB kinase modulators” (Bristol-Myers Squibb Company, priority 2003, dated 2007)
pIC50: −log10 of the molar value. Where a SMILES comes first, the peptide text is derived from it. [ ]: non-standard residue; d: D form. The star is where a group is joined. Nle = CCCC[C@H](N)C(=O)O; Cbz = O=C(OCc1ccccc1)*

What was measured:
proteasome [1] = biological target: T1, proteasome (Homo sapiens, UniProt P28074); assay: Jurkat IκB-Bla reporter assay, inhibition of the TNFα-stimulated decrease in reporter level by proteasome inhibitors; assay type: cell-based
T1 construct: other: Jurkat IκB-Bla cells, TNFα stimulation; effect on the TNFα-stimulated decrease in reporter level; other: 10 μM for 60 minutes prior to TNFα 10 ng/ml; CCF2/AM
T1 sequence (P28074 60-263): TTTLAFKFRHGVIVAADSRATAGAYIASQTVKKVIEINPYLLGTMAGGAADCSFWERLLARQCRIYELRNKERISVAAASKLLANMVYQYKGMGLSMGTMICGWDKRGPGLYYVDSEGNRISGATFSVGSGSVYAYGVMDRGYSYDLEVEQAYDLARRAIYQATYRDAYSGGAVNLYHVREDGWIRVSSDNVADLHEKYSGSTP
T1 sequence (P28072 35-239 partner): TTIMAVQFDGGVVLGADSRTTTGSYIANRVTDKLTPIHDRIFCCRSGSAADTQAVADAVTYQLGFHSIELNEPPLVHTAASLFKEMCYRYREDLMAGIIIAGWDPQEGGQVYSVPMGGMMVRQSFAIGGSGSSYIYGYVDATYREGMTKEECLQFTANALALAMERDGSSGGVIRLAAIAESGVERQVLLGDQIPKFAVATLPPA
T1 sequence (Q99436 44-277 partner): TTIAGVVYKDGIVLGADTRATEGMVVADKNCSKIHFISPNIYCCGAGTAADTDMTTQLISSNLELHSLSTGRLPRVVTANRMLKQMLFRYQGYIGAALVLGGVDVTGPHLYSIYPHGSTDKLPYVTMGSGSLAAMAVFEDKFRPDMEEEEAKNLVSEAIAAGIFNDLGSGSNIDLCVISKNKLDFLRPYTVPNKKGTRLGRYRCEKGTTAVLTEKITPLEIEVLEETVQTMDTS
Experimental: (§1) Therefore, the requirement of proteasome activity on β-lactamase activity was tested. […] Reporter activity was determined using CCF2/AM.

proteasome [2] = assay: as above; assay type: cell-based, Human; details: 10 μM, no TNFα; FIG. 10
Experimental: as §1

Jurkat IκB-Bla cells = assay: Responsiveness of Jurkat IκB-Bla cells to proinflammatory treatments that activate the NFκB pathway; assay type: cell-based
Experimental: The responsiveness of the Jurkat IκB-Bla cells to proinflammatory treatments known to activate the NFκB pathway was tested. Cells were treated with 10 ng/ml TNFα, 10 nM PMA, 10 μg/ml PHA or 100 ng/ml IL-1β for the times indicated in FIG. 8A and then loaded with CCF2 and read on a fluorescence plate reader. […] The apparent insensitivity to IL-1β may be explained by low expression of IL-1 receptor in Jurkat cells.
To establish that the TNFα-stimulated decrease in β-lactamase activity was due to phosphorylation of IκB on serines-32 and -36, the responsiveness of Jurkat cells expressing the S32A, S36A IκB mutant as a fusion with β-lactamase was tested. The IκB(S32A, S36A)-Bla cell line was created exactly as described above for wild-type IκB-Bla cells. The cells were treated with 10 ng/ml TNFα for 30 minutes and then loaded with CCF2/AM. As shown in the comparison of wild-type construct to mutant in FIGS. 9A and 9B, respectively, the mutation of serines-32 and -36 abolished the decrease in β-lactamase activity in response to TNFα treatment.

## CCCC[C@@H](C=O)NC(=O)[C@H](CC(C)C)NC(=O)[C@H](CC(C)C)NC(C)=O [ALLN] (Ac-Leu-Leu-[Nle]-aldehyde)
Proteasome [1]; Jurkat IκB-Bla cells, TNFα stimulation, data not shown, read-out: IC50 for inhibition of the TNFα-stimulated decrease in reporter levels
  pIC50: 5.30

## CC(C)C[C@@H](C=O)NC(=O)[C@H](CC(C)C)NC(=O)[C@H](CC(C)C)NC(=O)OCc1ccccc1 [MG132] (Cbz-Leu-Leu-Leu-aldehyde)
Proteasome [1]; 10 μM for 60 minutes prior to TNFα 10 ng/ml, CCF2/AM, FIG. 10
  effect on the TNFα-stimulated decrease in reporter level: efficiently inhibited
Proteasome [2]
  effect of inhibitor alone on reporter levels: little to no effect

## C[C@@H]1C[C@@H]([C@H](O)CC2CC(=O)NC(=O)C2)C(=O)[C@@H](C)C1 [cycloheximide]
Jurkat IκB-Bla cells; 100 μg/ml added at the time of TNFα addition (10 ng/ml, 30 minutes), FIG. 9
  effect of blocking protein synthesis on the TNFα-stimulated decrease in β-lactamase activity: did not have a strong synergistic effect

## IL-1β: proinflammatory cytokine; low IL-1 receptor expression in Jurkat cells suggested
Jurkat IκB-Bla cells; 10 nM PMA, 10 μg/ml PHA or 100 ng/ml IL-1β, extended treatment for PMA and PHA, FIG. 8A
  response of IκB-Bla reporter level (β-lactamase activity) to treatment: insensitivity

## TNFα
Jurkat IκB-Bla cells; 10 ng/ml, within 30 minutes, CCF2, FIG. 8A
  decrease in β-lactamase activity: 2 fold
